This assay concerns the target Cyclophilin A (CYPA, PPIA) (Homo sapiens, UniProt P62937). As to the kind of experiment: SPR with purified CYPA; also protein thermal shift (destabilization) and chymotrypsin-coupled PPIase inhibition. It counts as binding.

For orientation: Kd means the equilibrium constant for the complex coming apart.

Each structure is given as a SMILES string.

Cyclophilin A (CYPA, PPIA), sequence (P62937 whole entry): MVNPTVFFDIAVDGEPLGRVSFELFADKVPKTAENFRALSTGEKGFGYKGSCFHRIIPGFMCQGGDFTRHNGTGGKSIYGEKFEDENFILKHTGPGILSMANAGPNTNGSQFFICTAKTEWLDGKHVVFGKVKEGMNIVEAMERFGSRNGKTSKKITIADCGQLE

In the case of `Cc1c(O)cccc1C(=O)N[C@@H](CSc1ccccc1)[C@H](O)CN1C[C@H]2CCCC[C@H]2C[C@H]1C(=O)NC(C)(C)C` [NFV, Nelfinavir], the Kd was found to be 940 nM.

(Values after PMC8532448, “Drug target inference by mining transcriptional data using a novel graph convolutional network framework” (Protein & Cell, 2021).)
